Values of other authors, collected in patent publication US8163312B2, “Herbal formulation for prevention and treatment of diabetes and associated complications” (Innoveda Biological Solutions (P) Ltd., priority 2008, dated 2012).

Tests used:
PPAR-alpha = molecular target: T1, PPAR-alpha (Homo sapiens, UniProt Q07869); conditions: selective PPAR-alpha antagonist added
T1 construct: host or cells: human embryonic kidney 293 cells
T1 sequence (Q07869 1-468): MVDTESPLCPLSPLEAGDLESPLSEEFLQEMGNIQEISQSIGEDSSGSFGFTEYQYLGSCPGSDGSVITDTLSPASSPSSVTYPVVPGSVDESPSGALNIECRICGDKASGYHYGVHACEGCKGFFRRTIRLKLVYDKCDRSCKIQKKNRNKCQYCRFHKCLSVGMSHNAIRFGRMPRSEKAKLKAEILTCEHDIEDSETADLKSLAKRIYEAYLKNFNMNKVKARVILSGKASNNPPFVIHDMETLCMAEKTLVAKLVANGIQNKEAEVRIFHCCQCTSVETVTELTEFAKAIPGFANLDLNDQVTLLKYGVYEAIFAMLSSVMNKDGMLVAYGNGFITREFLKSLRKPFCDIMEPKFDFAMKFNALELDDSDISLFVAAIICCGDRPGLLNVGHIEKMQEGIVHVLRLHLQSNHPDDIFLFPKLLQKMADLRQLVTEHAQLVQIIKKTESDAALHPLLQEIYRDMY

mice = conditions: sanjoinine-A given as one unit
[1] = system: alloxan induced diabetic rats

Row | Molecule | relative sedative potency (mice) | further results
1 | CC(C)c1ccc2c(c1)c(SC(C)(C)C)c(CC(C)(C)C(=O)O)n2Cc1ccc(Cl)cc1 [MK-886] | – | effects of SO extract and mangiferin on PPAR-alpha luciferase and lipoprotein lipase (PPAR-alpha): completely suppressed
2 | CN(C)CCCN1c2ccccc2Sc2ccc(Cl)cc21 [chlorpromazine] | 5 | –
3 | COc1cc(/C=C/C(=O)CC(=O)/C=C/c2ccc(O)c(OC)c2)ccc1O [curcumin] | – | activity of SDH (sorbitol dehydrogenase) [1]: lowered significantly; blood sugar, Hb and glycosylated hemoglobin levels [1]: reduced; oxidative stress (levels of TBRAS) [1]: reduced the oxidative stress
4 | COc1cc2ccnc3c2c(c1OC)-c1ccccc1C3=O [lysicamine] | 6.5 | –
5 | CC(C)C[C@@H]1NC(=O)[C@@H](NC(=O)[C@H](Cc2ccccc2)N(C)C)[C@H](C(C)C)Oc2ccc(cc2)/C=C\NC1=O [sanjoinine-A] | one | –
6 | sanjoinine-Ahl | 3 | –
